Experimental data published in publication PMC11375437, “Selective labelling of GBA2 in cells with fluorescent β-D-arabinofuranosyl cyclitol aziridines” (Chemical Science, 2024).

Target: T1, GBA2 (Homo sapiens, UniProt Q9HCG7)
T1 sequence (Q9HCG7 1-927): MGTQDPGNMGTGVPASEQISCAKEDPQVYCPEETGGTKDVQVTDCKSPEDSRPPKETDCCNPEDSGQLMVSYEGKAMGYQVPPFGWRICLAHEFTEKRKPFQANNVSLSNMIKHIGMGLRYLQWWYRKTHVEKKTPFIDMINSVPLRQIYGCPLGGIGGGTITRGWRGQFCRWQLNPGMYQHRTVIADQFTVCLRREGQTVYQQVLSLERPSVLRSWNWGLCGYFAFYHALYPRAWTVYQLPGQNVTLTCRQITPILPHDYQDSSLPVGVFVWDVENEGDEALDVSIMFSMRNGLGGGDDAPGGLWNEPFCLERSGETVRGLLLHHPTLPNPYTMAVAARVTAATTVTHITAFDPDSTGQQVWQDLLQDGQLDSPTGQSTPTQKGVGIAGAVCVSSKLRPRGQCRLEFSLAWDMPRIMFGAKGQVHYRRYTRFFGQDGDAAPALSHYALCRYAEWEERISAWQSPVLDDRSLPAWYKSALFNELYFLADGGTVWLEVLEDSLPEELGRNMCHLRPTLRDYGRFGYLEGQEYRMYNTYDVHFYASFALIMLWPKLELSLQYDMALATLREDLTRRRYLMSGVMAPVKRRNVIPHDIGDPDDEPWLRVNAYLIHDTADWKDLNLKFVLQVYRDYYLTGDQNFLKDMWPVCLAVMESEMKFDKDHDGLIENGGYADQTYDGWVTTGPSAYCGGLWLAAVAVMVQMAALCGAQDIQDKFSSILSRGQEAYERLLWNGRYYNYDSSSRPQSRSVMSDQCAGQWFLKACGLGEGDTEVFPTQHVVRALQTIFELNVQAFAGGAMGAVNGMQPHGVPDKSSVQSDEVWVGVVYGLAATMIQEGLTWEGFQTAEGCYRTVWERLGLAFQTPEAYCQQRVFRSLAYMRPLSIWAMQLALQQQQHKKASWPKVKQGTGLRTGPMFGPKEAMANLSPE
Test: In situ labelling/inactivation in intact HEK293T cells (endogenous GBA1, GBA2/GBA3 OE)
Type: cell-based
Parameters: expressed in transfected cells; host or cells: HEK293T GBA1/GBA2 KO (CRISPR/Cas9), GBA2 overexpressed
Details: ESI Fig. S8B (24 h incubation)
Protocol: We next sought to investigate whether we could identify and localize active GBA2 molecules in human cells using our β-D-Araf aziridine ABPs. […] The lysates were then denatured, their protein content separated by SDS-PAGE and the resulting wet gel slabs scanned for fluorescence. Following this procedure, we observed that all three β-D-Araf ABPs 3–5 enter intact cells, where they react with GBA2, and given the enzyme lifetime (>24 h), also with newly synthesized GBA2 (Fig. 5A, ESI Fig. S8A and B ^†).
Figure S7. Fluorescent gel images of in situ labelling of intact HEK293T cells (GBA1 endogenous and GBA2/GBA3 OE) by arabinofuranosyl cyclitol configured ABPs 3-5, 14 and 20 after 1 h incubation. GAA = Lysosomal α glucosidase (EC 3.2.1.20, CAZy GH31).
Figure S8. […] Intact HEK293T cells were treated with β-D-Araf ABPs for 24 h at 37 °C with 7% CO2, then cells were collected and lysed for labelling studies with or without residual β-glucosidases activity read out. […]
2.8 β-Glucosidase inactivation visualized by competitive ABPP with SDS-PAGE In general, samples containing GBA1, GBA2 or GBA3 (see the exact constitution of these samples in the described case) are first incubated (in vitro or in situ) with the inactivator compounds, subsequently, the fluorescent readout ABPs were added and incubated with the mixture to reveal the residual active β-glucosidase enzymes. […]

SMILES	Concentration at which GBA2 is inactivated almost completely in intact cells
COc1ccc(C2=[N+]3C(=C(CCCCc4cn(CCCCCCCCN5[C@@H]6[C@H](CO)[C@@H](O)[C@H](O)[C@@H]65)nn4)c4ccc(-c5ccc(OC)cc5)n4[B-]3(F)F)C=C2)cc1 (some centres unmarked) [ABP 4]	100 nM
CC1=CC(C)=[N+]2C1=C(CCCCc1cn(CCCCCCCCN3[C@@H]4[C@H](CO)[C@@H](O)[C@H](O)[C@@H]43)nn1)c1c(C)cc(C)n1[B-]2(F)F (some centres unmarked) [ABP 3]	100 nM
